From US9109041B2, “Analog compounds of analgesic peptides derived from the venom of crotalus durissus terrificus snakes, their uses, compositions, methods of preparation and purification” (priority 2004, dated 2015)

Columns and labels:
[1] = tested on: prostaglandin E2-induced hyperalgesia; assay: rat paw pressure test, prostaglandin E2-induced hyperalgesia; conditions: for 50% effective dose / 60% effective dose / 90% effective dose: reversal of PGE2-induced hyperalgesia, CurveExpert 1.3
[2] = tested on: hyperalgesia induced by the Walker 256 tumor; assay: hyperalgesia induced by the Walker 256 tumor (cancer pain); assay type: in vivo, rat
From the text: The Walker 256 tumor cells were kindly provided by Prof. Dr. Rui Curi, of the Physiology and Biophysics Department of the Biomedical Science Institute of the University of São Paulo. The tumor-bearing animal was sacrificed and the tumoral tissue was removed, placed on a Petri dish containing 0.9% saline. Then, the tumor was cut in smaller parts, and transferred into a beaker containing saline. The material was triturated with a fine-cut, until the tumor is totally fragmented. Then, this material was filtered in gauze and the liquid collected in a beaker. All procedures were performed on ice. The material of the beaker was transferred to 50 ml plastic tubes and centrifuged at 4° C., for 10 minutes, at 1200 rpm. After centrifugation, the supernatant was rejected and the precipitate resuspended in saline 0.9%. For cell counts, the suspension of cells was diluted (1:100) in saline. An aliquot (200 μl) was removed and placed in a test tube containing 200 μl of 1% Trypan blue. The cell number was determined in optical microscope using Neubauer's chamber. The cellular viability was determined considering viable the light-refracting cells.
After determining the number of cells, 1 ml of the suspension, containing 1×10^7 cells, was injected by intraperitoneal route, on the right side of the rats to obtain liquid tumor (ascites).
Five days after injection, the rats with ascites were sacrificed and the ascetic fluid collected from the peritoneal cavity and placed in a test tube containing EDTA. The liquid was diluted 100 times with phosphate-buffered saline (PBS), pH 7.4. The cell count was done after dilution with Trypan blue, as described above. Tumor cell count was ascertained to 1×10^6 cells in 100 μl, by dilution with PBS. This number of cells was determined in preliminary tests for induction of cancer pain in rats. In this final cell number adjustment, the volume of antibiotic (Benzetacil®) added to the suspension (150,000 units of antibiotic/10 ml of suspension), was taken into consideration. The antibiotic was used in order to avoid microbial contamination. The cells were injected by intraplantar route into one of the rat hind paws. Control animals were injected with PBS into the contralateral paw, in the same experimental conditions.
Hyperalgesia, allodynia and spontaneous pain were determined before (BM-basal measurement) and 5 days after tumor cell injection, before (IM-initial measurement) and 2 hours after (FM-Final measurement) peptide administration.
The results were analyzed comparing the mean values of the basal and initial measurements, or of the initial and final measurements or, when determined, by comparing the mean values obtained in the different experimental groups (Tables 17, 18, 19).
For this purpose, the animals were treated with CTOP, a specific μ receptor antagonist (20 μg/paw), nor-BNI, a specific κ receptor antagonist (50 μg/paw) or with ICI 174,864, a specific δ receptor antagonist (10 μg/paw). The antagonists were injected by intraplantar route. The peptide was administered in the dose of 6 μg/kg, orally, immediately before the injection of the opioid antagonists. The results were analyzed comparing the mean values of the basal and initial measurements, or of the initial and final measurements or, when determined, by comparing the mean values obtained in the different experimental groups ( Table 20).

Xaa-Phe-Ser-Pro-Glu-Asn-Cys-Gln-Gly-Glu-Ser-Gln-Pro-Cys [SEQ ID NO: 2]
pain threshold, IM (g) ± S.E.M. ([1]; 1 μg/kg p.o., before PGE2 (Table 7)): 77 ± 1.22 g
pain threshold, FM (g) ± S.E.M ([1]; 5 μg/kg p.o. + ICI174,864 i.pl. with PGE2, 3 h after PGE2): 145 ± 2.89 g
pain threshold, IM (g) ± S.E.M. ([1]; 5 μg/kg p.o. + ICI174,864 i.pl., before PGE2): 77 ± 1.05 g
pain threshold, FM (g) ± S.E.M ([1]; 5 μg/kg p.o. + nor-BNI i.pl. with PGE2, 3 h after PGE2): 58 ± 2.47 g
pain threshold, IM (g) ± S.E.M. ([1]; 5 μg/kg p.o. + nor-BNI i.pl., before PGE2): 77 ± 1.05 g
pain threshold, FM (g) ± S.E.M ([1]; 5.0 μg/kg p.o., 3 h after PGE2 100 ng/paw i.pl. (Table 2)): 130 ± 1.58 g
pain threshold, FM (g) ± S.E.M ([1]; 5 μg/kg p.o., 3 h after PGE2 100 ng/paw i.pl. (Table 8)): 147 ± 2.55 g
pain threshold, IM (g) ± S.E.M. ([1]; 5.0 μg/kg p.o., before PGE2 (Table 2)): 78 ± 2.00 g
pain threshold, IM (g) ± S.E.M. ([1]; 5 μg/kg p.o., before PGE2 (Table 8)): 77 ± 1.22 g
pain threshold, FM (g) ± S.E.M ([1]; 25.0 μg/kg p.o., 3 h after PGE2 100 ng/paw i.pl.): 133 ± 3.39 g
pain threshold, IM (g) ± S.E.M. ([1]; 25.0 μg/kg p.o., before PGE2): 79 ± 1.87 g
50% effective dose ([1]; intraplantar route): 0.000002327 µg/kg
60% effective dose ([1]; intraplantar route): 0.000004904 µg/kg
90% effective dose ([1]; intraplantar route): 0.002876 µg/kg
50% effective dose ([1]; intravenous route): 0.0000458 µg/kg
60% effective dose ([1]; intravenous route): 0.0002144 µg/kg
90% effective dose ([1]; intravenous route): 0.002701 µg/kg
duration of the antinociceptive effect ([1]; one single administration, 1 μg/kg p.o.): up to 120 hours
50% effective dose ([1]; oral route): 0.004146 µg/kg
60% effective dose ([1]; oral route): 0.006348 µg/kg
90% effective dose ([1]; oral route): 0.02106 µg/kg
opioid receptors involved in the antinociceptive effect ([1]; peptide 1 μg/kg p.o., delta, kappa, mu antagonists i.pl.): kappa opioid receptors are involved
opioid receptors involved in the antinociceptive activity ([1]; peptide 5 μg/kg p.o., kappa and delta antagonists i.pl.): kappa opioid receptors are involved
analgesic activity ([1]; synthetic peptides compared with natural ENPAK-k, similar conditions): same analgesic activity as the natural ENPAK-k
pain threshold, FM ([2]; 6 μg/kg p.o. + CTOP 20 μg/paw i.pl., 5th day, 2 hours after peptide): 72 ± 2.81 g
pain threshold, IM ([2]; 6 μg/kg p.o. + CTOP 20 μg/paw i.pl., 5th day, before peptide): 37 ± 2.81 g
pain threshold, BM ([2]; 6 μg/kg p.o. + CTOP 20 μg/paw i.pl., before injection of the tumor): 70 ± 1.29 g
pain threshold, FM ([2]; 6 μg/kg p.o. + ICI 174,864 10 μg/paw i.pl., 5th day, 2 hours after peptide): 52 ± 1.22 g
pain threshold, IM ([2]; 6 μg/kg p.o. + ICI 174,864 10 μg/paw i.pl., 5th day, before peptide): 33 ± 3.39 g
pain threshold, BM ([2]; 6 μg/kg p.o. + ICI 174,864 10 μg/paw i.pl., before injection of the tumor): 67 ± 1.22 g
pain threshold, FM ([2]; 6 μg/kg p.o. + nor-BNI 50 μg/paw i.pl., 5th day, 2 hours after peptide): 32 ± 1.05 g
pain threshold, IM ([2]; 6 μg/kg p.o. + nor-BNI 50 μg/paw i.pl., 5th day, before peptide): 32 ± 2.14 g
pain threshold, BM ([2]; 6 μg/kg p.o. + nor-BNI 50 μg/paw i.pl., before injection of the tumor): 69 ± 1.53 g
pain threshold, FM ([2]; 6 μg/kg p.o., 5th day after tumor implantation, 2 hours after peptide (Table 17)): 76 ± 2.29 g
pain threshold, IM ([2]; 6 μg/kg p.o., 5th day after tumor implantation, before peptide (Table 17)): 27 ± 1.01 g
pain threshold, FM ([2]; 6 μg/kg p.o., 5th day, 2 hours after peptide (Table 20)): 75 ± 2.88 g
pain threshold, IM ([2]; 6 μg/kg p.o., 5th day, before peptide (Table 20)): 36 ± 2.39 g
pain threshold, BM ([2]; 6 μg/kg p.o., before injection of the tumor (Table 17)): 69 ± 1.30 g
pain threshold, BM ([2]; 6 μg/kg p.o., before injection of the tumor (Table 20)): 71 ± 1.25 g
effect of the mu opioid receptor antagonist on the anti-hyperalgesic effect of the peptide ([2]; peptide 6 μg/kg p.o., CTOP 20 μg/paw i.pl.): did not alter
effect of the delta opioid receptor antagonist on the anti-hyperalgesic effect of the peptide ([2]; peptide 6 μg/kg p.o., ICI 174,864 10 μg/paw i.pl.): partially inhibited
effect of the kappa opioid receptor antagonist on the anti-hyperalgesic effect of the peptide ([2]; peptide 6 μg/kg p.o., nor-BNI 50 μg/paw i.pl.): blocked
